One assay has as its target GSPT1 (Homo sapiens, UniProt P15170+Q96SW2). Briefly: GSPT1 protein reduction, western analysis, HNT-34. The class given is cell-based. Also noted: reduction in GSPT1 protein level was evaluated in human normal PBMCs; endogenous in cells; host or cells: primary PBMCs from normal donors (ID 4328, 4379) and AML patients (ID 11SH, 09P6). Particulars: HNT-34, 10 nM Compound D. As for the experimental part: The time course of the reduction in GSPT1 by Compound D also was studied for up to 48 hours. The progressive degradation of GSPT1 over the course of 1 to 20 hours was evident in the presence of all concentrations of Compound D studied from 3 to 300 nM in HNT-34, HL-60, and ML-2 cells, with little GSPT1 remaining by 20 hours at 100 or 300 nM Compound D in HNT-34 or HL-60 cells (FIG. 34 and FIG. 35C). Time-dependent reduction in GSPT1 was also observed in KG-1 and OCI-AML2 cells at 3 to 1000 nM Compound D, with little GSPT1 remaining in KG-1 cells at 100 to 300 nM at 24 hours or in OCI-AML2 cells at 300 and 1000 nM at 24 hours (FIG. 35D). Loss of GSPT1 occurred more slowly in Kasumi-1, AML-193, and […] cells. […] A positive association (r^2=0.50; […]

For the next assay, the system named is F36-P cells. Briefly: Apoptosis (caspase 3/7 activation), F36-P. It is filed as cell-based, human.
For another assay, the system named is p-eIF2α. Briefly: p-eIF2α immunoblot, OCI-AML2. It is filed as cell-based, human. To be noted: 300 μg/ml G418 or 200 nM Compound D. On the procedure:
It is known that amino acid starvation causes GCN2 activation, which phosphorylates eIF2α. Because GSPT1 mediates normal translation termination, it is hypothesized that depletion of GSPT1 by Compound D may cause readthrough of stop codons. Whether the translational readthrough induced by Compound D contributes to the increased levels of p-eIF2α was investigated. OCI-AML2 cells stably expressing the Fluc/Nluc-G36A readthrough reporter were treated with 300 μg/ml G418 or 200 nM Compound D for 2, 4, 6, 8, 10, 12, or 16 hours. The levels of p-eIF2α were measured by immunoblot analysis. AML2 readthrough assay was conducted to measure the readthrough reporter.

The test system of a further assay is U-937 cells. Briefly: Anti-proliferation CTG assay, U-937. The class given is cell-based, human. On the procedure:
(§1) A plethora of AML cell lines were treated with serial dilutions of Compound D. IC50 value of the anti-proliferation effect of Compound D (as determined in 72-hour CTG assays) in each cell line is summarized in Table 1.
The effect of overexpression of GSPT1 on the anti-proliferative effect of Compound D and Compound E was determined in human histiocytic lymphoma cell line U937 and human leukemia cell line MOLM13. Treatment compounds (e.g., Compound D or Compound E) were titrated from 0.001 μM to 10 μM. Cell proliferation was measured by CellTiter-Glo cell viability assay at 48 hours after treatment. […] However, when exogenous GSPT1 was overproduced via the EF1α promoter, as shown in FIGS. 5A-5D, the anti-proliferative effect of Compound D and Compound E reduced.

In a further assay the test system is KASUMI-1 cells. Briefly: Anti-proliferation 72-hour CTG assay, KASUMI-1. To be noted: Homo sapiens; KASUMI-1, 72-hour CTG assay; read-out: IC50 of the anti-proliferative effect. The class given is cell-based. As for the experimental part:
as §1

A further assay deals with OCI-AML2 cells. Briefly: Anti-proliferation 72-hour CTG assay, OCI-AML2. The class given is cell-based. Particulars: Homo sapiens; OCI-AML2, 72-hour CTG assay; read-out: IC50 of the anti-proliferative effect. As for the experimental part:
as §1

Another assay concerns ATF3 and DDIT3 mRNA. Briefly: ATF3 and DDIT3 mRNA induction, HNT-34. The class given is cell-based, human. The text has this:
The kinetics of induction of mRNA for UPR factors ATF3 and DDIT3 in HNT-34 cells also strongly differed from that in PBMCs. […] This is also consistent with the reduced cytotoxicity observed for Compound D in normal adult lymphocytes as compared with tumor cells (data not shown).

The subject of assay [1] is proteins in the UPR pathway, PARP. Briefly: UPR pathway proteins and PARP cleavage, western blot, healthy PBMCs. It is filed as cell-based, human. To be noted: 10 nM Compound D.

GSPT1, sequence (P15170 1-637 isoform P15170-3): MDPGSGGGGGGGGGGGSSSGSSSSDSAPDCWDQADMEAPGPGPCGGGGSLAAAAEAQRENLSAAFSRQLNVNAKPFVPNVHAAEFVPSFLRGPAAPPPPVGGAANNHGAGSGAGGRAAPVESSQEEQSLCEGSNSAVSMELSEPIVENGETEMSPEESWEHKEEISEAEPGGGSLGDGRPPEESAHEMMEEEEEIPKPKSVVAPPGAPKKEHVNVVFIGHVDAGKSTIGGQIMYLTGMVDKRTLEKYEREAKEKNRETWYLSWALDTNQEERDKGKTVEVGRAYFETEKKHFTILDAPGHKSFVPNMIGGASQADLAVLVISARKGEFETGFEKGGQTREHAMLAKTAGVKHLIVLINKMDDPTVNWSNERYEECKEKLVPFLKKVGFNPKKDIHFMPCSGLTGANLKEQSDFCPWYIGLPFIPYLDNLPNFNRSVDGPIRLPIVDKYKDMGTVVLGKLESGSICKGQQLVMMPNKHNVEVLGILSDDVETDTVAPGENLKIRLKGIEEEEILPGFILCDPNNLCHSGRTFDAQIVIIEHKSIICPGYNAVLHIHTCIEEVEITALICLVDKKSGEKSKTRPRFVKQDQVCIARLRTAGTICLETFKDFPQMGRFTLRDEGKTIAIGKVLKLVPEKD
GSPT1, sequence (Q96SW2 whole entry): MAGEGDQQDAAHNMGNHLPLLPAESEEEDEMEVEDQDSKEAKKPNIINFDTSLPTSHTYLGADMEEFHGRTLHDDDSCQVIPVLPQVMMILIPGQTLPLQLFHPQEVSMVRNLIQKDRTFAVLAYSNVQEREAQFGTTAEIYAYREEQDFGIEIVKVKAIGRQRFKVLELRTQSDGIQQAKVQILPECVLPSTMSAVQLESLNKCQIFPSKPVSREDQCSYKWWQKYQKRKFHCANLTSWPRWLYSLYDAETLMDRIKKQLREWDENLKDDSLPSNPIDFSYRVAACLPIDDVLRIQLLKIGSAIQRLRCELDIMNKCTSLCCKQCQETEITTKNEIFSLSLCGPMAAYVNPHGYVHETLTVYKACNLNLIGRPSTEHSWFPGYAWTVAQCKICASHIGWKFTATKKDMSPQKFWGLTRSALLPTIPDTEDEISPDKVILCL
GSPT1, sequence (Q16531 whole entry partner): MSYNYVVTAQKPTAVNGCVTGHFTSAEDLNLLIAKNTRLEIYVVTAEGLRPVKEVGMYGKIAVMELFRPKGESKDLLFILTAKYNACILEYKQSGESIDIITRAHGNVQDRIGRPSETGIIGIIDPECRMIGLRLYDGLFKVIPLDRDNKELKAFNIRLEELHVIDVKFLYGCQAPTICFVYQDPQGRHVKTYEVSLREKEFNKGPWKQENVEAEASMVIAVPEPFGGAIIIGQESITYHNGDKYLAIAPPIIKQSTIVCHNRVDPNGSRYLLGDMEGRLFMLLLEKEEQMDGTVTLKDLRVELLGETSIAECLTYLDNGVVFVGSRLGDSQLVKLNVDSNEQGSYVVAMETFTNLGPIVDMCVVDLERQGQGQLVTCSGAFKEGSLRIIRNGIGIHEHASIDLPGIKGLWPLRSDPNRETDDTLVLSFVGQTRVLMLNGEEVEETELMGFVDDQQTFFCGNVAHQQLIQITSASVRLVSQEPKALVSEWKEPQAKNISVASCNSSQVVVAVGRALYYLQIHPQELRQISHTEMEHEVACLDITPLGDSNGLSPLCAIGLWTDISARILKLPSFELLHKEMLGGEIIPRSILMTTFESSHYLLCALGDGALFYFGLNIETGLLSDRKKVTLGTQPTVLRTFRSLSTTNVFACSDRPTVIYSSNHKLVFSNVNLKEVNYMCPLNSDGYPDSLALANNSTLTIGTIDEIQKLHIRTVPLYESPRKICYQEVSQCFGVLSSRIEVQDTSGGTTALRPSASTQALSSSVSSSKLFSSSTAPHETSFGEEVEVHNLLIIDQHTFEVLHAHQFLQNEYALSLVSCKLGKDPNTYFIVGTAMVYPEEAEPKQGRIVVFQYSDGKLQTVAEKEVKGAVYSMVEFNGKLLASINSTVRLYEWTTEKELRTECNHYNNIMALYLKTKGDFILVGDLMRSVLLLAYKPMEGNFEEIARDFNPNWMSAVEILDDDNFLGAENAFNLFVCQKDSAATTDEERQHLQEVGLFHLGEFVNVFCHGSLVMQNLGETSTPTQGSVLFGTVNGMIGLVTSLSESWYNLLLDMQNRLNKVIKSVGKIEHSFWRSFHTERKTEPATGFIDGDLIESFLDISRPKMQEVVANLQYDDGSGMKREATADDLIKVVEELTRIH

Usually IC50 stands for the point on the concentration scale where inhibition reaches its midpoint. Consider `O=C1CCC(N2Cc3cc(CNC(=O)C(F)(F)c4ccc(Cl)cc4)ccc3C2=O)C(=O)N1` (stereo not drawn) [Compound D, 2-(4-chlorophenyl)-N-((2-(2,6-dioxopiperidin-3-yl)-1-oxoisoindolin-5-yl)methyl)-2,2-difluoroacetamide], for which, on GSPT1, the “time at which GSPT1 degradation was evident” value is no more than 2 h. Besides, the “Average Percent Increase in Apoptosis at 123 nM Compound D, Apoptosis (12 hr)” value with F36-P cells (12 hr) worked out at 0%. In addition, the “Average Percent Increase in Apoptosis at 123 nM Compound D, Apoptosis (24 hr)” value in the assay on F36-P cells (24 hr) amounted to 2%. The “Average Percent Increase in Apoptosis at 123 nM Compound D, Apoptosis (48 hr)” value in the assay on F36-P cells (48 hr) was determined as 6%. Further, the “levels of p-eIF2α” value in the assay with p-eIF2α is listed as “increased the levels”. The IC50 came out at 74 nM in the assay on U-937 cells (Homo sapiens, U-937, 72-hour CTG assay, read-out: IC50 of the anti-proliferative effect); 21 nM with KASUMI-1 cells; 57 nM in the assay on OCI-AML2 cells. Besides, in the assay on U-937 cells (U937 CRBN -/- cells, 48 hours), the anti-proliferative effect result was “completely abolished”. In addition, the “cell proliferation (CellTiter-Glo)” value in the assay with U-937 cells (U937 parental cells, 0.001 μM to 10 μM, 48 hours) was “inhibited cell proliferation”. For the same compound, the “time of induction of ATF3 and DDIT3 mRNA” value with ATF3 and DDIT3 mRNA is no more than 8 h. Also, the “induction of proteins in the UPR pathway or cleavage of PARP” value in assay [1] was “did not occur”.

The values are drawn from US12474342B2, “Methods for treating cancer and the use of biomarkers as a predictor of clinical sensitivity to therapies” (CELGENE CORPORATION, priority 2016, dated 2025).
